Data as given in the supplement of paper PMC11208160.

Assay: recombinant UMI read abundance after kanamycin selection (control-corrected) (log10(CPM+1)); higher = more efficient recombination; extreme values may be limits of the assay; sequences stand for … in AGTGCAGAGAAAATCGGCCAGTTTTCTCTGCCTGCAGTCCGCATGCCGTGGGACCCCTTGGGTTCTAACCTGTTGCCTAGATTTATGCAGCGGACTGCCTTTCTCCCAAAGTGATAAACCGG…AGGTTGGTTTCACT; site = the 11-nt donor
Method in brief: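 Sequencing read counts were converted to CPM, averaged over two replicates and scaled by control-derived factors. Results are given as log10(CPM+1). The reads covered the donor–target junction of recombinant UMIs from a pooled Escherichia coli screen of donor and donor-binding-loop pairs for the IS621 bridge recombinase.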
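Also: IS621 bridge recombinase in Escherichia coli cells against a fixed T5 target plasmid.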

Sequence | recombinant UMI read abundance (log10)
TCCACCGCATGGACCGGTTTTCCCGGTAATCCGTATTTGCC (site TCCACCGCTTG) | 0.00442
TCCAGTACATGGACCGGTTTTCCCGGTAATCCGTATTTGAG (site TCCAGTACTCT) | 0.00906
TCCATATCATGGACCGGTTTTCCCGGTAATCCGTATTTGTC (site ACCATATCTGA) | 0
TCCATATCATGGACCGGTTTTCCCGGTAATCCGTATTTGTC (site CCCATATCTGA) | 0
TCCATATCATGGACCGGTTTTCCCGGTAATCCGTATTTGTC (site GCCATATCTGA) | 0
TCCCACACATGGACCGGTTTTCCCGGTAATCCGTATTTGTA (site ACCCACACTTA) | 0.0202
TCCCACACATGGACCGGTTTTCCCGGTAATCCGTATTTGTA (site CCCCACACTTA) | 0.0988
TCCCACACATGGACCGGTTTTCCCGGTAATCCGTATTTGTA (site GCCCACACTTA) | 0.0195
TCCCACACATGGACCGGTTTTCCCGGTAATCCGTATTTGTA (site TCCCACACTTA) | 0.42
TCCCACTCATGGACCGGTTTTCCCGGTAATCCGTATTTGGG (site TCCCACTCTCC) | 0.0433
TCCCCAACATGGACCGGTTTTCCCGGTAATCCGTATTTGCT (site TCCCCAACTAG) | 0.417
TCCCCTTCATGGACCGGTTTTCCCGGTAATCCGTATTTGAG (site TCCCCTTCTCT) | 0
TCCCGCCCATGGACCGGTTTTCCCGGTAATCCGTATTTGGC (site TCCCGCCCTGC) | 0
TCCGAGACATGGACCGGTTTTCCCGGTAATCCGTATTTGCG (site TCAGAGACTCG) | 0.0174
TCCGAGACATGGACCGGTTTTCCCGGTAATCCGTATTTGCG (site TCCGAGACTCG) | 0.0319
TCCGAGACATGGACCGGTTTTCCCGGTAATCCGTATTTGCG (site TCGGAGACTCG) | 0.0214
TCCGAGACATGGACCGGTTTTCCCGGTAATCCGTATTTGCG (site TCTGAGACTCG) | 0.0115
TCCGCCGCATGGACCGGTTTTCCCGGTAATCCGTATTTGCG (site TCCACCGCTCG) | 0
TCCGCCGCATGGACCGGTTTTCCCGGTAATCCGTATTTGCG (site TCCCCCGCTCG) | 0.00514
TCCGCCGCATGGACCGGTTTTCCCGGTAATCCGTATTTGCG (site TCCGCCGCTCG) | 0.0179
TCCGCCGCATGGACCGGTTTTCCCGGTAATCCGTATTTGCG (site TCCTCCGCTCG) | 0.00863
TCCGCTACATGGACCGGTTTTCCCGGTAATCCGTATTTGAT (site TCCGCTACTAT) | 0.00615
TCCGGGTCATGGACCGGTTTTCCCGGTAATCCGTATTTGTA (site TCCGGGTCTTA) | 0.413
TCCTAATCATGGACCGGTTTTCCCGGTAATCCGTATTTGTC (site TCCTAATCTGA) | 0
TCCTACCCATGGACCGGTTTTCCCGGTAATCCGTATTTGAG (site TCCTACCCTCT) | 0.0177
TCCTAGCCATGGACCGGTTTTCCCGGTAATCCGTATTTGCC (site ACCTAGCCTGG) | 0

Sequence | recombinant UMI read abundance (log10)
TCCTAGCCATGGACCGGTTTTCCCGGTAATCCGTATTTGCC (site CCCTAGCCTGG) | 0
TCCTAGCCATGGACCGGTTTTCCCGGTAATCCGTATTTGCC (site GCCTAGCCTGG) | 0.221
TCCTAGCCATGGACCGGTTTTCCCGGTAATCCGTATTTGCC (site TCCTAGCCTGG) | 0
TCGACTCCATGGACCGGTTTTCCCGGTAATCCGTATTTGCC (site TCGACTCCTGG) | 0
TCGAGCGCATGGACCGGTTTTCCCGGTAATCCGTATTTGCT (site TCGAGCGCTAG) | 1.5
TCGAGGACATGGACCGGTTTTCCCGGTAATCCGTATTTGGC (site TCGAGGACTGC) | 0
TCGAGTCCATGGACCGGTTTTCCCGGTAATCCGTATTTGGC (site TCGAGTCCTGC) | 0
TCGCAGCCATGGACCGGTTTTCCCGGTAATCCGTATTTGGA (site AAAGTCTCTCG) | 0
TCGCATTCATGGACCGGTTTTCCCGGTAATCCGTATTTGTC (site TCGCATTCTGA) | 0
TCGCCGCCATGGACCGGTTTTCCCGGTAATCCGTATTTGGG (site TCGCCGCCTCC) | 0.00807
TCGCCGGCATGGACCGGTTTTCCCGGTAATCCGTATTTGGC (site TAGCCGGCTGC) | 0
TCGCCGGCATGGACCGGTTTTCCCGGTAATCCGTATTTGGC (site TCGCCGGCTGC) | 0
TCGCCGGCATGGACCGGTTTTCCCGGTAATCCGTATTTGGC (site TGGCCGGCTGC) | 0
TCGCCGGCATGGACCGGTTTTCCCGGTAATCCGTATTTGGC (site TTGCCGGCTGC) | 0
TCGCTAGCATGGACCGGTTTTCCCGGTAATCCGTATTTGCC (site TCGCTAGCTGG) | 0
TCGCTGTCATGGACCGGTTTTCCCGGTAATCCGTATTTGTG (site TCGCTGTCTCA) | 0.936
TCGGAGACATGGACCGGTTTTCCCGGTAATCCGTATTTGCG (site TCAGAGACTCG) | 1.72
TCGGAGACATGGACCGGTTTTCCCGGTAATCCGTATTTGCG (site TCCGAGACTCG) | 0.44
TCGGAGACATGGACCGGTTTTCCCGGTAATCCGTATTTGCG (site TCGGAGACTCG) | 2.41
TCGGAGACATGGACCGGTTTTCCCGGTAATCCGTATTTGCG (site TCTGAGACTCG) | 0.976
TCGGCGGCATGGACCGGTTTTCCCGGTAATCCGTATTTGAG (site TCGGCGGCTCT) | 0.464
TCGGGTACATGGACCGGTTTTCCCGGTAATCCGTATTTGAC (site TCGGGTACTGT) | 0
TCGTATTCATGGACCGGTTTTCCCGGTAATCCGTATTTGTT (site TCGTATTCTAA) | 1.24
TCGTCTACATGGACCGGTTTTCCCGGTAATCCGTATTTGAT (site TCGTCTACTAT) | 0.00771
TCGTGATCATGGACCGGTTTTCCCGGTAATCCGTATTTGGC (site TCGTGATCTGC) | 0
TCGTTAACATGGACCGGTTTTCCCGGTAATCCGTATTTGTT (site TCGTTAACTAA) | 0.00894
